Data: patent US5786364A, “Bicyclic isothiourea derivatives useful in therapy” (priority 1995, dated 1998)
pIC50: −log10 of the molar value. Read-outs that look alike come from different tables or passages of the source.

Columns and labels:
Assay type in all cases: biochemical
[1] = molecular target: T1, neuronal nitric oxide synthase (Rattus norvegicus, UniProt P29476); experiment: Screen A: screen for neuronal nitric oxide synthase inhibiting activity (conversion of 3H-L-arginine to 3H-L-citrulline)
T1 construct: Enzyme was isolated from rat hippocampus or cerebellum; from tissue; host or cells: hippocampus or cerebellum of male Sprague-Dawley rat, 20,000 g supernatant
T1 sequence (P29476 whole entry): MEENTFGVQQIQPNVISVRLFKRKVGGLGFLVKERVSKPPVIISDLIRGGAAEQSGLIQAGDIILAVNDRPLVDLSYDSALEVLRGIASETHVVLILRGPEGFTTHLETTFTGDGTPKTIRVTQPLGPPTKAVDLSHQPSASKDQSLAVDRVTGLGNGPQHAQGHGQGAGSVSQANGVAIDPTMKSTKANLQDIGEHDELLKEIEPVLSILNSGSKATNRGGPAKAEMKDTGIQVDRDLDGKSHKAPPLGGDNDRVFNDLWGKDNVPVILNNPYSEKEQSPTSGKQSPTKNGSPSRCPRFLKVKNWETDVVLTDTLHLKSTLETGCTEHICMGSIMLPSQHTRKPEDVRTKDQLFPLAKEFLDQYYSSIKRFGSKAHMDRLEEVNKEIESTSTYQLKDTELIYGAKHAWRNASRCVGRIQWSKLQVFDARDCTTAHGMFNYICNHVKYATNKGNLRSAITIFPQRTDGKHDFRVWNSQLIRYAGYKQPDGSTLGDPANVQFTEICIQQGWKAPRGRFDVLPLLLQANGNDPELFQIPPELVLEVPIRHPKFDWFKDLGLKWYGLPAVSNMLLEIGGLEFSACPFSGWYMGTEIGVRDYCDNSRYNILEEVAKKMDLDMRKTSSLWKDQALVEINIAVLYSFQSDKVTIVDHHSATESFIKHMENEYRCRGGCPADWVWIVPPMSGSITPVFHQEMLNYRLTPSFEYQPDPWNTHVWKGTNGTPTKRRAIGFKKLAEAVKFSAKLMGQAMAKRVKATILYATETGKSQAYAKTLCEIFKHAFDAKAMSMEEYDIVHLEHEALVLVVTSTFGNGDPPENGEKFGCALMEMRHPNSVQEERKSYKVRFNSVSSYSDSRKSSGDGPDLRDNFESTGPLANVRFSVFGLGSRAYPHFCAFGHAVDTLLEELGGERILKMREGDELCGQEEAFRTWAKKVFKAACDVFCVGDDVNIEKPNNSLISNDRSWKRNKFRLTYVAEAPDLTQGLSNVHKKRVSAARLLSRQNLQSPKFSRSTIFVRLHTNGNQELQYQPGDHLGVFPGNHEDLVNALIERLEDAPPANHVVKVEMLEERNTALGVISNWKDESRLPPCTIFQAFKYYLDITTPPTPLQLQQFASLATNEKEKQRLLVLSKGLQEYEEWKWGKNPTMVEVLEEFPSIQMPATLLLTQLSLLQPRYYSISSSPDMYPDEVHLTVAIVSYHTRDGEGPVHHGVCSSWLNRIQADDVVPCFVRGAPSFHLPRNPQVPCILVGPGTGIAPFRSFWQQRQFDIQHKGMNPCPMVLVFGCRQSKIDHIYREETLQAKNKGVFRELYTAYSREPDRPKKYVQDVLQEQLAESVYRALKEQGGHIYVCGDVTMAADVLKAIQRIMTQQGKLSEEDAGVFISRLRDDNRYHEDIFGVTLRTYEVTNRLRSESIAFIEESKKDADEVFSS
Experimental: (§1) Nitric oxide synthase converts ^3 H-L-arginine to ^3 H-L-citrulline which can be separated by cation exchange chromatography and quantified by scintillation counting.
(A) Screen for neuronal nitric oxide synthase inhibiting activity
Enzyme was isolated from rat hippocampus or cerebellum. The cerebellum or hippocampus of a male Sprague-Dawley rat (250-275 g) is removed following CO2 anaesthesia of the animal and decapitation. Cerebellar or hippocampal supernatant is prepared by homogenisation in 50 mM Tris-HCl with 1 mM EDTA buffer (pH 7.2 at 25° C.) and centifugation for 15 minutes at 20,000 g. Residual L-arginine is removed from the supernatant by chromatography through Dowex AG-50W-X8 sodium form and hydrogen form columns successively, and further centrifugation at 1000 g for 30 seconds.
For the assay, 25 μl of the final supernatant is added to each of 96 wells (of a 96 well filter plate) containing 25 μl L-arginine solution (of concentration 18 μM ^1 H-L-arginine, 96 nM ^3 H-L-arginine)and either 25 μl of an assay buffer (50 mM HEPES, 1 mM EDTA, 1.5 mM CaCl2, pH 7.4) or 25 μl of test compound in the buffer at 22° C. To each test tube is added 25 μl of complete assay buffer (50 mM HEPES, 1 mM EDTA, 1.5 mM CaCl2, 1 mM DTT, 100 μM NADPH, 10 μg/ml calmodulin, pH 7.4) to initiate the reaction and the reaction is stopped after 10 minutes by addition of 200 μl of a slurry of termination buffer (20 mM HEPES, 2 mM EDTA, pH 5.5) and Dowex AG-50W-X8 200-400 mesh.
Labelled L-citrulline is separated from labelled L-arginine by filtering each filter plate and 75 ul of each terminated reaction is added to 3 ml of scintillation cocktail. The L-citrulline is then quantified by scintillation counting.
IC50 values for test compounds were initially estimated from the inhibiting activity of 1, 10 and 100 μM solutions of the compounds.

[2] = molecular target: T2, inducible nitric oxide synthase (Homo sapiens, UniProt P35228); experiment: Screen B: screen for inducible nitric oxide synthase inhibiting activity (DLD-1 cell lysate)
T2 construct: Enzyme is prepared, after induction, from the cultured human colorectal carcinoma cell line, DLD-1; endogenous in cells; host or cells: DLD-1 cells (European Collection of Animal Cell Cultures), induced with IL-1, IFN-gamma, IL-6 and TNF-alpha; cell lysate
Experimental: as §1
(B) Screen for inducible nitric oxide synthase inhibiting activity
Enzyme is prepared, after induction, from the cultured human colorectal carcinoma cell line, DLD-1 (obtained from the European Collection of Animal Cell Cultures) DLD-1 cells are cultured in RPMI 1640 media supplemented with 10% foetal bovine serum, 4 mM L-glutamine and antibiotics (100 units/ml penicillin G, 100 μg/ml streptomycin & 0.25 μg/ml amphotericin B) and 100 ug/ml kanamycin. Cells are routinely grown in 225 cm^3 flasks containing 35 ml medium kept at 37° C. and in a humidified atmosphere containing 5% CO2.
Nitric oxide synthase is produced by cells in response to interferon-about 250 U/ml IL-1, 1000 U/ml IFNγ, 200 U/ml IL-6, and 200 U/ml TNF-alpha. After a period of 17-20 hours in culture, harvesting of cells is accomplished by scraping the cell sheet from the flask surface into the culture medium. […]
Labelled L-citrulline is separated from labelled L-arginine using Dowex AG-50W. […] After allowing the samples to dry the L-citrulline is quantified by scintillation counting. […]

[3] = molecular target: T3, endothelial nitric oxide synthase (Homo sapiens, UniProt P29474); experiment: Screen C: screen for endothelial nitric oxide synthase inhibiting activity (HUVEC enzyme)
T3 construct: Enzyme may be isolated from human umbilical vein endothelial cells (HUVECs); host or cells: human umbilical vein endothelial cells (HUVECs)
T3 sequence (P29474 2-1203): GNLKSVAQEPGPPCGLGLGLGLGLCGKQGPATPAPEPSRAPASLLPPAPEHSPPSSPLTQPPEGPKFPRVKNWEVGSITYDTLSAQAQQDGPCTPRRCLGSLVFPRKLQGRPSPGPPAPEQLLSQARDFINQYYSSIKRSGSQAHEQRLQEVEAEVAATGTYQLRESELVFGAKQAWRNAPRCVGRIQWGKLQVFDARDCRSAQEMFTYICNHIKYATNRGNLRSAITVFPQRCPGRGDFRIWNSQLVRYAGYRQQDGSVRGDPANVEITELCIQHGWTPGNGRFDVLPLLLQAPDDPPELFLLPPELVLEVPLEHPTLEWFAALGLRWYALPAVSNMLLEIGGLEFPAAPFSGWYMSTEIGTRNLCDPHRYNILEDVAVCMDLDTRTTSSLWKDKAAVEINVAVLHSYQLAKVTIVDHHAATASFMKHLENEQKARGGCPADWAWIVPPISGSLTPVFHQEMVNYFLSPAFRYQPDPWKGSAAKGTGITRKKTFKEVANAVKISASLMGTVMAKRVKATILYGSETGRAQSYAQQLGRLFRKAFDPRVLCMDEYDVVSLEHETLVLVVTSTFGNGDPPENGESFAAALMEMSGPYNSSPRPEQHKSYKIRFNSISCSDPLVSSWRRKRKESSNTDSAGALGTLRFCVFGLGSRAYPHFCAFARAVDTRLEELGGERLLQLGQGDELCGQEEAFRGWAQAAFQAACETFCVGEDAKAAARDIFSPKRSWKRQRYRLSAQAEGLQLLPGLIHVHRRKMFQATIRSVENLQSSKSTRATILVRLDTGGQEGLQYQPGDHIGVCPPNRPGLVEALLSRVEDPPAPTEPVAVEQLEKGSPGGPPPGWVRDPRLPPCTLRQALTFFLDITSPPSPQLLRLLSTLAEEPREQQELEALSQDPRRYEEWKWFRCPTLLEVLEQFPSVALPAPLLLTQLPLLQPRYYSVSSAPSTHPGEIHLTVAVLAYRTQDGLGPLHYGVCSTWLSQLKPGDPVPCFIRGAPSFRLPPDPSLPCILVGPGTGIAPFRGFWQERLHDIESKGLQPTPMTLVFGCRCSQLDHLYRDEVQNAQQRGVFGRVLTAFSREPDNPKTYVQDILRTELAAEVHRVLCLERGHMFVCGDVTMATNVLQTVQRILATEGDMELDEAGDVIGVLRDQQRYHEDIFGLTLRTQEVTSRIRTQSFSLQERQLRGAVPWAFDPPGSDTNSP
Text: as §1
(C) Screen for endothelial nitric oxide synthase inhibiting activity
HUVECs were purchased from Clonetics Corp (San Diego, Calif., U.S.A.) and cultured to confluency. Cells can be maintained to passage 35-40 without significant loss of yield of nitric oxide synthase. When cells reach confluency, they are resuspended in Dulbecco's phosphate buffered saline, centrifuged at 800 rpm for 10 mins, the cell pellet homogenised in ice-cold 50 mM Tris-HCl, 1 mM EDTA, 10% glycerol, 1 mM phenylmethylsulphonylfluoride, 2 μM leupeptin at pH 4.2. Following centrifugation at 34,000 rpm for 60 mins, the pellet is solubilised in the homogenisation buffer which also contains 20 mM CHAPS. After a 30 min incubation on ice, the suspension is centrifuged at 34,000 rpm for 30 mins. The resulting supernatant is stored at -80° C. until use. […]
Labelled L-citrulline is separated from labelled L-arginine by filtration into another 96 well plate and 75 ul of each terminated reaction is added to 3 ml of scintillation cocktail. The L-citrulline is then quantified by scintillation counting. […]

CCSC(=N)Nc1ccc2c(c1)CNCC2 [Example 1, N-(1,2,3,4-tetrahydroisoquinolin-7-yl)carbamimidothioic acid ethyl ester]
pIC50 [1]: > 5.00
IC50 in Screen B relative to that obtained in Screen A (selectivity) ([2]; Screen B (macrophage isoform) IC50 / Screen A (neuronal) IC50): more than 10 times
IC50 in Screen C relative to that obtained in Screen A (selectivity) ([3]; Screen C (endothelial isoform) IC50 / Screen A (neuronal) IC50): more than 10 times

CCSC(=N)Nc1ccc2c(c1)CC(N(C)Cc1cccc(Cl)c1)C2 (stereo not shown) [Example 2, N-5-(2-(((3-chlorophenyl)methyl)(methyl)amino)indanyl)carbamimidothioic acid, ethyl ester]
pIC50 ([1]; neuronal isoform, rat hippocampus or cerebellum supernatant, read-out: IC50 (Screen A)): > 5.00

N=C(N)NN [Aminoguanidine, reference compound]
pIC50 ([2]; inducible isoform, DLD-1 cell lysate, standard to verify the procedure, read-out: IC50 (50% inhibitory concentration) (Screen B standard)): 5.00

NC(=NCCC[C@H](N)C(=O)O)N[N+](=O)[O-] [N-nitro-L-arginine, reference compound]
inhibition at 1 µM ([1]; at a concentration of 1 μM, cerebellar supernatant, typical experiment, read-out: inhibition of nitric oxide synthase (Screen A reference standard)): 80%
inhibition at 1 µM ([3]; at a concentration of 1 μM, typical experiment, read-out: inhibition of nitric oxide synthase (Screen C reference standard)): 70 to 90%
